Tests used:
Details in all cases: human, ipsc-cm
[1] = (§1) Electrical activity assay on cell lines treated with a given drug. DMSO was used as a vehicle and a control, unblinded dofetilide was used as a control.
[2] = as §1; format: ADME, cell-based; design: FPDc: unit not given here
[3] = as §1; remark: listed apart in the source
[4] = as §1; remark: listed apart in the source
[5] = as §1; format: ADME, cell-based
[6] = as §1; remark: listed apart in the source
[7] = as §1; format: ADME, cell-based; remark: listed apart in the source
[8] = 0.1 µM, concentration (um) 0.1 uM
[9] = 0.001 µM, concentration (um) 0.001 uM
[10] = 0.01 µM, concentration (um) 0.01 uM
[11] = 0.009507 µM, concentration (um) 0.00950736 uM
[12] = 0.03004 µM, concentration (um) 0.0300433 uM
[13] = 0.09494 µM, concentration (um) 0.0949367 uM
[14] = 0.3 µM, concentration (um) 0.3 uM

SMILES: Cc1cccc(C)c1OCC(C)N (stereo not drawn) [MEXILETINE]
- FPDc ([1]; 0.1 µM): 67.46
- FPDc ([1]; 1 µM): 77.46
- FPDc ([1]; 10 µM): 87.68
- FPDc ([1]; 100 µM): 95.17
- FPDc [2, 8]: 43.08
- FPDc ([2]; 1 µM, concentration (um) 1 uM): 54.07
- FPDc ([2]; 10 µM, concentration (um) 10 uM): 64.26
- FPDc ([2]; 100 µM, concentration (um) 100 uM): 63.72
- FPD measurement ([3]; 0.1 µM): 1 Values Out Of 1 Were Excluded Due To Quiescence Or 0 Fpdc
- FPDc ([3]; 0.1 µM): 1 Values Out Of 1 Were Excluded Due To Quiescence Or 0 Fpdc
- FPD measurement ([3]; 1 µM): 1 Values Out Of 1 Were Excluded Due To Quiescence Or 0 Fpdc
- FPDc ([3]; 1 µM): 1 Values Out Of 1 Were Excluded Due To Quiescence Or 0 Fpdc
- FPD measurement ([3]; 10 µM): 1 Values Out Of 1 Were Excluded Due To Quiescence Or 0 Fpdc
- FPDc ([3]; 10 µM): 1 Values Out Of 1 Were Excluded Due To Quiescence Or 0 Fpdc
- FPD measurement ([3]; 100 µM): 1 Values Out Of 1 Were Excluded Due To Quiescence Or 0 Fpdc
- FPDc ([3]; 100 µM): 1 Values Out Of 1 Were Excluded Due To Quiescence Or 0 Fpdc
- APDc ([4]; 0.1 µM): 53
- FPD measurement ([4]; 0.1 µM): 53 FPDc
- APDc ([4]; 1 µM): 57.83
- FPD measurement ([4]; 1 µM): 57.83 FPDc
- APDc ([4]; 10 µM): 63.09
- FPD measurement ([4]; 10 µM): 63.09 FPDc
- APDc ([4]; 100 µM): 74.46
- FPD measurement ([4]; 100 µM): 74.46 FPDc

SMILES: COC(=O)C1=C(C)NC(C)=C(C(=O)OC)C1c1ccccc1[N+](=O)[O-] [NIFEDIPINE]
- FPD measurement [5, 9]: 5 Values Out Of 5 Were Excluded Due To Quiescence Or 0 Apdc
- FPDc [5, 9]: 21.76
- FPD measurement [5, 10]: 5 Values Out Of 5 Were Excluded Due To Quiescence Or 0 Apdc
- FPDc [5, 10]: 17.1
- FPD measurement [5, 8]: More Than Half The Wells Had A Quiescence Event Or Apdc Readings Of 0
- FPDc [5, 8]: More Than Half The Wells Had A Quiescence Event Or Fpdc Readings Of 0
- FPD measurement ([5]; 1 µM, concentration (um) 1 uM): More Than Half The Wells Had A Quiescence Event Or Apdc Readings Of 0
- FPDc ([5]; 1 µM, concentration (um) 1 uM): More Than Half The Wells Had A Quiescence Event Or Fpdc Readings Of 0
- FPDc ([1]; 0.001 µM): 73.26
- FPDc ([1]; 0.01 µM): 70.54
- FPDc ([1]; 0.1 µM): 51.56
- FPDc ([1]; 1 µM): 21.94
- FPD measurement ([6]; 0.001 µM): 50.88 FPDc
- FPDc ([6]; 0.001 µM): 50.88
- FPD measurement ([6]; 0.01 µM): 43.95 FPDc
- FPDc ([6]; 0.01 µM): 43.95
- FPD measurement ([6]; 0.1 µM): 24.94 FPDc
- FPDc ([6]; 0.1 µM): 24.94
- FPD measurement ([6]; 1 µM): 16.23 FPDc
- FPDc ([6]; 1 µM): 16.23
- FPD measurement ([3]; 0.001 µM): 1 Values Out Of 1 Were Excluded Due To Quiescence Or 0 Fpdc
- FPDc ([3]; 0.001 µM): 1 Values Out Of 1 Were Excluded Due To Quiescence Or 0 Fpdc
- FPD measurement ([3]; 0.01 µM): 1 Values Out Of 1 Were Excluded Due To Quiescence Or 0 Fpdc
- FPDc ([3]; 0.01 µM): 1 Values Out Of 1 Were Excluded Due To Quiescence Or 0 Fpdc
- FPD measurement ([3]; 0.1 µM): 1 Values Out Of 1 Were Excluded Due To Quiescence Or 0 Fpdc
- FPDc ([3]; 0.1 µM): 1 Values Out Of 1 Were Excluded Due To Quiescence Or 0 Fpdc
- FPD measurement ([3]; 1 µM): 1 Values Out Of 1 Were Excluded Due To Quiescence Or 0 Fpdc
- FPDc ([3]; 1 µM): 1 Values Out Of 1 Were Excluded Due To Quiescence Or 0 Fpdc
- APDc ([4]; 0.001 µM): 59.3
- FPD measurement ([4]; 0.001 µM): 59.3 FPDc
- APDc ([4]; 0.01 µM): 57.63
- FPD measurement ([4]; 0.01 µM): 57.63 FPDc
- APDc ([4]; 0.1 µM): More Than Half The Wells Had A Quiescence Event Or Apdc Readings Of 0
- FPD measurement ([4]; 0.1 µM): More Than Half The Wells Had A Quiescence Event Or Apdc Readings Of 0
- APDc ([4]; 1 µM): More Than Half The Wells Had A Quiescence Event Or Apdc Readings Of 0
- FPD measurement ([4]; 1 µM): More Than Half The Wells Had A Quiescence Event Or Apdc Readings Of 0

SMILES: CCOC(=O)C1=C(C)NC(C)=C(C(=O)OC)C1c1cccc([N+](=O)[O-])c1 (stereo not drawn) [NITRENDIPINE]
- FPD measurement [7, 11]: 39.69 FPDc
- FPDc [7, 11]: 6 Values Out Of 6 Were Excluded Due To Quiescence Or 0 Fpdc
- FPDc [7, 12]: 6 Values Out Of 6 Were Excluded Due To Quiescence Or 0 Fpdc
- FPDc [7, 13]: 6 Values Out Of 6 Were Excluded Due To Quiescence Or 0 Fpdc
- FPDc [7, 14]: 6 Values Out Of 6 Were Excluded Due To Quiescence Or 0 Fpdc
- FPD measurement [5, 11]: More Than Half The Wells Had A Quiescence Event Or Apdc Readings Of 0
- FPDc [5, 11]: More Than Half The Wells Had A Quiescence Event Or Fpdc Readings Of 0
- FPD measurement [5, 12]: More Than Half The Wells Had A Quiescence Event Or Apdc Readings Of 0
- FPDc [5, 12]: More Than Half The Wells Had A Quiescence Event Or Fpdc Readings Of 0
- FPD measurement [5, 13]: More Than Half The Wells Had A Quiescence Event Or Apdc Readings Of 0
- FPDc [5, 13]: More Than Half The Wells Had A Quiescence Event Or Fpdc Readings Of 0
- FPD measurement [5, 14]: 5 Values Out Of 5 Were Excluded Due To Quiescence Or 0 Apdc
- FPDc [5, 14]: 5 Values Out Of 5 Were Excluded Due To Quiescence Or 0 Fpdc
- FPD measurement ([1]; 0.009507 µM): 5 Values Out Of 5 Were Excluded Due To Quiescence Or 0 Apdc
- FPDc ([1]; 0.009507 µM): 63.48
- FPD measurement ([1]; 0.03004 µM): 5 Values Out Of 5 Were Excluded Due To Quiescence Or 0 Apdc
- FPDc ([1]; 0.03004 µM): 45.72
- FPDc ([1]; 0.09494 µM): 31.81
- FPD measurement ([1]; 0.3 µM): 5 Values Out Of 5 Were Excluded Due To Quiescence Or 0 Apdc
- FPDc ([1]; 0.3 µM): 19.65
- FPD measurement ([3]; 0.009507 µM): 1 Values Out Of 1 Were Excluded Due To Quiescence Or 0 Fpdc
- FPDc ([3]; 0.009507 µM): 1 Values Out Of 1 Were Excluded Due To Quiescence Or 0 Fpdc
- FPD measurement ([3]; 0.03004 µM): 1 Values Out Of 1 Were Excluded Due To Quiescence Or 0 Fpdc
- FPDc ([3]; 0.03004 µM): 1 Values Out Of 1 Were Excluded Due To Quiescence Or 0 Fpdc
- FPD measurement ([3]; 0.09494 µM): 1 Values Out Of 1 Were Excluded Due To Quiescence Or 0 Fpdc
- FPDc ([3]; 0.09494 µM): 1 Values Out Of 1 Were Excluded Due To Quiescence Or 0 Fpdc
- FPD measurement ([3]; 0.3 µM): 1 Values Out Of 1 Were Excluded Due To Quiescence Or 0 Fpdc
- FPDc ([3]; 0.3 µM): 1 Values Out Of 1 Were Excluded Due To Quiescence Or 0 Fpdc
- APDc ([4]; 0.009507 µM): 66.7
- FPD measurement ([4]; 0.009507 µM): 66.7 FPDc
- APDc ([4]; 0.03004 µM): 75.75
- FPD measurement ([4]; 0.03004 µM): 75.75 FPDc
- APDc ([4]; 0.09494 µM): More Than Half The Wells Had A Quiescence Event Or Apdc Readings Of 0
- FPD measurement ([4]; 0.09494 µM): More Than Half The Wells Had A Quiescence Event Or Apdc Readings Of 0
- APDc ([4]; 0.3 µM): More Than Half The Wells Had A Quiescence Event Or Apdc Readings Of 0
- FPD measurement ([4]; 0.3 µM): More Than Half The Wells Had A Quiescence Event Or Apdc Readings Of 0

SMILES: CC(C)(C)c1ccc(C(O)CCCN2CCC(C(O)(c3ccccc3)c3ccccc3)CC2)cc1 (stereo not drawn) [TERFENADINE]
- FPD measurement [7, 9]: 48.77 FPDc
- FPDc [7, 9]: 6 Values Out Of 6 Were Excluded Due To Quiescence Or 0 Fpdc
- FPD measurement [7, 10]: 52.11 FPDc
- FPDc [7, 10]: 6 Values Out Of 6 Were Excluded Due To Quiescence Or 0 Fpdc
- FPD measurement [7, 8]: 71.18 FPDc
- FPDc [7, 8]: 6 Values Out Of 6 Were Excluded Due To Quiescence Or 0 Fpdc
- FPDc ([7]; 1 µM, concentration (um) 1 uM): 6 Values Out Of 6 Were Excluded Due To Quiescence Or 0 Fpdc
- FPD measurement [5, 9]: 5 Values Out Of 5 Were Excluded Due To Quiescence Or 0 Apdc
- FPDc [5, 9]: 20.04
- FPD measurement [5, 10]: 5 Values Out Of 5 Were Excluded Due To Quiescence Or 0 Apdc
- FPDc [5, 10]: 19.19
- FPD measurement [5, 8]: 5 Values Out Of 5 Were Excluded Due To Quiescence Or 0 Apdc
- FPDc [5, 8]: 20.37
- FPD measurement ([5]; 1 µM, concentration (um) 1 uM): 5 Values Out Of 5 Were Excluded Due To Quiescence Or 0 Apdc
- FPDc ([5]; 1 µM, concentration (um) 1 uM): 19.11
- FPDc ([1]; 0.001 µM): 67.41
- FPDc ([1]; 0.01 µM): 65.79
- FPDc ([1]; 0.1 µM): 66.77
- FPDc ([1]; 1 µM): 63.51
- FPD measurement ([3]; 0.001 µM): 1 Values Out Of 1 Were Excluded Due To Quiescence Or 0 Fpdc
- FPDc ([3]; 0.001 µM): 1 Values Out Of 1 Were Excluded Due To Quiescence Or 0 Fpdc
- FPD measurement ([3]; 0.01 µM): 1 Values Out Of 1 Were Excluded Due To Quiescence Or 0 Fpdc
- FPDc ([3]; 0.01 µM): 1 Values Out Of 1 Were Excluded Due To Quiescence Or 0 Fpdc
- FPD measurement ([3]; 0.1 µM): 1 Values Out Of 1 Were Excluded Due To Quiescence Or 0 Fpdc
- FPDc ([3]; 0.1 µM): 1 Values Out Of 1 Were Excluded Due To Quiescence Or 0 Fpdc
- FPD measurement ([3]; 1 µM): 1 Values Out Of 1 Were Excluded Due To Quiescence Or 0 Fpdc
- FPDc ([3]; 1 µM): 1 Values Out Of 1 Were Excluded Due To Quiescence Or 0 Fpdc

Source: ChEMBL document CHEMBL4295262, “Evaluation of the utility of stem-cell derived cardiomyocytes for drug proarrhythmic potential” (2019)
